Values quoted from earlier work in paper PMC10531095, “Photonics of Some Monomethine Cyanine Dyes in Solutions and in Complexes with Biomolecules” (International Journal of Molecular Sciences, 2023).

Tested on: ssDNA
Parameters: method as in PMID 15249599
Conditions: ssDNA vs. dsDNA ref 62; cited from earlier work

## CCCN(CCCN(C)C)c1cc(/C=C2/Sc3ccccc3N2C)c2ccccc2[n+]1-c1ccccc1 [SYBR Green I]
  fluorescence increase with ssDNA, times lower than with dsDNA: about 11 times
